The values below come from US9403815B2, “Compounds and uses thereof in modulating levels of various amyloid beta peptide alloforms” (The Regents of the University of California, priority 2010, dated 2016).

Data set [1] concerns Aβ42. Put plainly: Sandwich ELISA for inhibition of Aβ42 secreted by SH-SY5Y-APP cells. The settings on record: Homo sapiens. It is filed as cell-based. On the procedure:
(§1) The SH-SY5Y-APP human cell line was derived by transfecting a human neuroblastoma (SH-SY5Y) cell line with a plasmid expressing wild type human APP751 cDNA and selecting for stable expression of human APP and human Aβ. In each case, the levels of Aβ42 or Aβtotal or Aβ38 peptides secreted into the media of these cells were measured using either two-site monoclonal antibody (mAb)-based sandwich ELISA assays (described below for Aβ42 and Aβtotal) or in the case of Aβ38 EC50's, using either the Meso Scale Aβ38, 40, 42 triplex kit along with the Meso Scale Sector Imager 6000 according to the manufacturer's protocols. This SH-SY5Y-APP human cell line was used for all cell-based Aβ peptide immunochemical assays.
(§2) SH-SY5Y-APP cells were plated at 75,000 cells/well in 96-well tissue culture plates. After 16-18 h, the culture medium was replaced with fresh medium containing either compound or vehicle. Replicates of 3 wells per test concentration were used, with 10 concentrations at ½ log step intervals. Vehicle (0.12% DMSO) is included as a control.
The Sandwich ELISA Assay for Measuring Inhibition of Aβ42 and Determination of Aβ42 IC50 Inhibition Values
An Anti-Aβ35-42 coating monoclonal antibody which is specific for the Aβ42 peptide, stored in 60 μl aliquots at −80° C. (thaw once and discard after use).
An Anti-Aβ1-12 alkaline phosphatase-conjugated monoclonal antibody, stored at 4° C.
Anti-Aβ35-42 monoclonal antibody was diluted 1/300 in 1×TBS. After vortexing, pipette 100 μl of antibody into each well of microplate. The antibody covered the entire bottom of each well. Each microplate was covered with a plate sealer and placed at 4° C. for 19 h.
Microplates were removed from the cold room, the coating monoclonal antibody were aspirated off from all wells. Each well was rinsed once with 200 μl TBS^2. The wells were blocked by pipetting 200 μl of 1% BSA/TBS blocking solution per well and the plates incubated at room temperature for 60 minutes on a laboratory benchtop.
Sample addition to plates: Directly following the 60 min block step, blocking buffer was aspirated off and 50 μl of sample was pipetted to each well and then standard curve samples (50 μl) were added in duplicate to top 2 rows.
The plates were incubated at room temperature for 2 h.
Anti-Aβ1-12 mAb-alkaline phosphatase conjugate was diluted 1/10,000 in 1% BSA/TBS/0.1% Tween-20 and vortexed. 50 μl was pipetted into each well of the microplate.
To all plates, 50 μl of CDP-Star (Sapphire) luminescence substrate (brought to room temperature prior to use) was added to each well and incubated for 15 min at room temperature in the dark. The timer was started after finishing adding the substrate to the first plate of the group. This step was done with a group of 5 plates or less.
Each microplate was read in a Glow Runner luminometer^3.
Data Analysis (Apply to Both Aβ42 and Aβtotal Sandwich ELISA Assays):
A. Calculations • 1. Average the sample values and calculate the SD (standard deviation) and % CV (all datapoints must be <30%). If not, determine if one well is an outlier by using the Grubbs test (Graphpad website). • 2. Convert sample values to pg/well using the linear fit of the standard curve. Footnotes (Apply to Both Aβ42 and Aβtotal Sandwich ELISA Assays)
A general note: In an ELISA, binding on a coated surface is turned into a signal by an enzyme label.

Data set [2] deals with Aβtotal. Kind of data set: Sandwich ELISA for total Aβ peptides secreted by SH-SY5Y-APP cells. The data set is classed as cell-based, human. On the procedure: as §1, §2
The Sandwich ELISA ASSAY for Measuring Inhibition of Total Aβ Peptides and Determination of Aβtotal Peptides IC50 Inhibition Values
Anti-Aβ1-12 monoclonal antibody was diluted 1/100 in 1×TBS. Vortex. 100 μl was pipetted into each well of a microplate. The coating monoclonal antibody covered the entire bottom of each well. Each microplate was covered with a plate sealer and placed in the refrigerator overnight.
Microplates were removed from the refrigerator and each well was rinsed with 200 μl TBS. The wells were blocked by pipetting 200 μl 1% BSA/TBS per well of each microplate. The microplates were incubated at room temperature for 60 minutes.
50 μl of sample was pipetted at the appropriate dilution into designated wells of the microplates. The microplates were incubated at room temperature for 2 hrs.
The biotinylated monoclonal antibody (anti-human Amyloid Beta Protein, Clone 4G8) was diluted 1/5000 in 1% BSA/TBS/0.1% Tween-20. After vortexing, 50 μl was pipetted into each well of each microplate. The microplates were incubated at room temperature on a laboratory bench top for 1 hour.
Alkaline Phosphatase Conjugated Streptavidin was diluted 1/10,000 in 1% BSA/TBS/0.1% Tween-20. Vortex. 50 μl was pipetted into each well of microplate. The microplates were incubated at room temperature on bench top for 1 h.
After finishing washing the microplates (≦5 microplates per assay), 50 μl of CSPD-Sapphire luminescence substrate (brought room temperature prior to use) was added to each well and the wells were incubated for 15 minutes at room temperature in the dark. The timer was started after finishing of the adding of the substrate solution to the first plate of the group of microplates. […]
Plates were read in a Glow Runner luminometer. […]

The test system of data set [3] is Aβ38. Put plainly: Meso Scale Aβ38, 40, 42 triplex assay for potentiation of Aβ38 in SH-SY5Y-APP cells. It is filed as cell-based. The settings on record: Homo sapiens, Meso Scale triplex kit. The procedure: as §1, §2
A short description of data set [4]: Solubility at pH 6.6 and pH 7.4. It is filed as physicochemical.
Data set [5] has as its system NOTCH. Put plainly: Western blot of NOTCH proteolysis (NICD production) in H4-APP751 cells transfected with NδED. The settings on record: 500 nM, 24 hrs. It is filed as cell-based, human. On the procedure:
Stable H4 human neuroglioma cells over-expressing human APP751 (H4-APP751 cells), were transfected with the NδED construct (Lanes 1-6), and then treated with vehicle (DMSO; Lanes 1-2 Control), 500 nM GSM41 (test compound), or 500 nM DAPT (Lanes 5-6 inhibitor of gamma secretase) for another 24 hrs. Additionally H4-APP751 cells were transfected with the NICD construct (as a reference of NICD; Lanes 7-8). Cells were harvested 48 hrs post transfection and subjected to Western blotting analysis. Myc antibody was utilized to assess the NδED and NICD tagged with Myc on their N-termini. β-Actin was utilized as the loading control.
Background: Immunoblotting shows a protein as a band on a membrane.

[6] abbreviates: pH 6.6, aqueous buffer, pH6.6, read-out: Solubility (μM) pH6.6.

In brackets after ≈: the same amount, converted by molar mass. Where two headings read alike, the source gives them in different places.

As a reminder, the IC50 is the point on the concentration scale where inhibition reaches its midpoint. High values mean weaker potency, low ones greater potency. As a reminder, the EC50 is the concentration that produces a half-maximal response. One may read the solubility as the concentration that dissolves in the medium under given conditions.

In turn, `Cc1cn(-c2ccc(-c3csc(Nc4cc(C(C)(C)C)nn4C)n3)cc2)cn1` [Compound 27] showed an IC50 in data set [1] of 250 to 500 nM. Besides, the “Total Aβ” value in data set [2] is on record as “No Change”. In turn, `Cc1cn(-c2ccc(-c3csc(Nc4cc(C(C)(C)C)nn4C)n3)cc2F)cn1` [Compound 28] returned an IC50 in data set [1] of 100 to 250 nM. The same measure, in the same setting: as for `COc1cc(-c2csc(Nc3cc(C(C)(C)C)nn3C)n2)ccc1-n1cnc(C)c1` [Compound 29], the figure is 100 to 250 nM; as for `Cc1cn(-c2ccc(-c3csc(Nc4cc(C(C)(C)C)nn4C)n3)cn2)cn1` [Compound 30], over 500 nM. For `Cc1cn(-c2ccc(-c3csc(Nc4c5c(nn4C)CCCC5)n3)cc2)cn1` [Compound 31], in data set [1], the IC50 is 100 to 250 nM. The “Total Aβ” value in data set [2] is “No Change”. Regarding `Cc1cn(-c2ccc(-c3csc(Nc4c5c(nn4C)CCCC5)n3)cc2F)cn1` [Compound 32], the IC50 in data set [1] was 100 to 250 nM.

As to `COc1cc(-c2csc(Nc3c4c(nn3C)CCCC4)n2)ccc1-n1cnc(C)c1` [Compound 33], the IC50 in data set [1] lay within 100 to 250 nM. As to `Cc1cn(-c2ccc(-c3csc(Nc4c5c(nn4C)CCCC5)n3)cn2)cn1` [Compound 34], the half-maximal inhibitory concentration (IC50) in data set [1] was over 500 nM. Moreover, the “Total Aβ” value in data set [2] was “No Change”. As for `CCn1nc(C(C)(C)C)cc1Nc1nc(-c2ccc(-n3cnc(C)c3)cc2)cs1` [Compound 35], in data set [1], the 50% inhibitory concentration (IC50) is 100 to 250 nM. In data set [1], `CCn1nc(C(C)(C)C)cc1Nc1nc(-c2ccc(-n3cnc(C)c3)c(F)c2)cs1` [Compound 36] yielded an IC50 of under 100 nM. The “Total Aβ” value in data set [2] is on record as “No Change”. Besides, the EC50 in data set [3] is over 500 nM. Regarding `CCn1nc(C(C)(C)C)cc1Nc1nc(-c2ccc(-n3cnc(C)c3)c(OC)c2)cs1` [Compound 37], the IC50 in data set [1] is under 100 nM. For the same compound, in data set [3], the concentration giving a half-maximal response (EC50) was in the range of 100 to 250 nM. Compound `CCn1nc(C(C)(C)C)cc1Nc1nc(-c2ccc(-n3cnc(C)c3)nc2)cs1` [Compound 38] returned an IC50 in data set [1] of 250 to 500 nM. `CCn1nc2c(c1Nc1nc(-c3ccc(-n4cnc(C)c4)cc3)cs1)CCCC2` [Compound 39]: the 50% inhibitory concentration (IC50) in data set [1] was over 500 nM. In addition, the solubility in data set [4] (setting [6]) was 2.3 µM (≈ 0.93 µg/mL). Compound `CCn1nc2c(c1Nc1nc(-c3ccc(-n4cnc(C)c4)c(F)c3)cs1)CCCC2` [Compound 40] yielded an IC50 in data set [1] of 100 to 250 nM. `CCn1nc2c(c1Nc1nc(-c3ccc(-n4cnc(C)c4)c(OC)c3)cs1)CCCC2` [Compound 41] registered an IC50 in data set [1] of under 100 nM. The “NICD levels (NOTCH proteolysis) compared to control” value in data set [5] is reported as “did not change NICD levels”. In addition, the solubility was 7.9 µM (≈ 3.43 µg/mL) in data set [4] (setting [6]) and 6.4 µM (≈ 2.78 µg/mL) in data set [4] (pH 7.4, aqueous buffer, pH7.4, read-out: Solubility (μM) pH7.4). Besides, in data set [3], the concentration giving a half-maximal response (EC50) is over 500 nM.

As for `CCn1nc2c(c1Nc1nc(-c3ccc(-n4cnc(C)c4)nc3)cs1)CCCC2` [Compound 42], the IC50 in data set [1] was over 500 nM.

In data set [1], `COc1cc(-c2csc(Nc3cc(C(C)(C)C)nn3C(C)C)n2)ccc1-n1cnc(C)c1` [Compound 43] came in with an IC50 of 100 to 250 nM. Still for that read-out and setting: as for `CCCn1nc(C(C)(C)C)cc1Nc1nc(-c2ccc(-n3cnc(C)c3)c(OC)c2)cs1` [Compound 45], the figure is under 100 nM; as for `Cc1cn(-c2ccc(-c3csc(Nc4cc(C(C)(C)C)nn4C(C)C)n3)cc2F)cn1` [Compound 46], under 100 nM; as for `CCCn1nc(C(C)(C)C)cc1Nc1nc(-c2ccc(-n3cnc(C)c3)c(F)c2)cs1` [Compound 48], under 100 nM. For the compound `CCn1nc2c(c1Nc1nc(-c3ccc(-n4cnc(C)c4)c(OC)n3)cs1)CCCC2` [Compound 49], the IC50 in data set [1] is under 100 nM. Take `C[C@H](NC(=O)Cc1cc(F)cc(F)c1)C(=O)N[C@H](C(=O)OC(C)(C)C)c1ccccc1` [DAPT, reference compound]: the “NICD levels (NOTCH proteolysis) compared to control” value in data set [5] is reported as “decreased NICD levels”.
